Results published in ChEMBL document CHEMBL4507270 (2021).

Assays:
[1] = biological target: T1, Discoidin domain-containing receptor 2 (Homo sapiens, UniProt Q16832); experiment: Inhibition of DDR2 at compound concentration of 10.0 uM using the ScanMax (DiscoverX)
T1 sequence (Q16832 whole entry): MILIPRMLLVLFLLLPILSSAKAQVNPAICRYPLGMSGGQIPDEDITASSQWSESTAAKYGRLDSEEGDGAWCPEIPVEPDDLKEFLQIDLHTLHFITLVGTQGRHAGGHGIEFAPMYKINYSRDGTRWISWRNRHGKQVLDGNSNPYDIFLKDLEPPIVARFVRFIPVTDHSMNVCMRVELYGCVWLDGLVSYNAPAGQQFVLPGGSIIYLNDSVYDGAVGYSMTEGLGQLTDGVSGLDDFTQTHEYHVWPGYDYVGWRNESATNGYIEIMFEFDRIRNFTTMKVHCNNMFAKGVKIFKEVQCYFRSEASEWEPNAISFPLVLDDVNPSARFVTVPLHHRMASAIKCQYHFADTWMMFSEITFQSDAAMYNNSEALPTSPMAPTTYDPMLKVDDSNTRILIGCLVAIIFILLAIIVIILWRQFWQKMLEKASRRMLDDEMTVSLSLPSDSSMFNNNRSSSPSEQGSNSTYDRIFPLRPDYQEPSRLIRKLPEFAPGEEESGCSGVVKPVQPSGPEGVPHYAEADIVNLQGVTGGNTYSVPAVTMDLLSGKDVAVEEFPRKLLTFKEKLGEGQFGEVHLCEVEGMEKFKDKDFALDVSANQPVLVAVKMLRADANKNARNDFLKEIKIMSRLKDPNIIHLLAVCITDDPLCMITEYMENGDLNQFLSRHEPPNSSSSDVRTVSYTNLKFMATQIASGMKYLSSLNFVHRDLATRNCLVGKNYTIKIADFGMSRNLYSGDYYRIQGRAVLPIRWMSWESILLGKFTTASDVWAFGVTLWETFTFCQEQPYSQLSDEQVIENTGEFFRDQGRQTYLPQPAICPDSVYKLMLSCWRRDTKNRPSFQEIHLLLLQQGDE

[2] = biological target: Histamine H3 receptor (Homo sapiens) (UniProt Q9Y5N1); conditions: Compound concentration 10.0 uM
Chain of Histamine H3 receptor (Homo sapiens) (Q9Y5N1 whole entry): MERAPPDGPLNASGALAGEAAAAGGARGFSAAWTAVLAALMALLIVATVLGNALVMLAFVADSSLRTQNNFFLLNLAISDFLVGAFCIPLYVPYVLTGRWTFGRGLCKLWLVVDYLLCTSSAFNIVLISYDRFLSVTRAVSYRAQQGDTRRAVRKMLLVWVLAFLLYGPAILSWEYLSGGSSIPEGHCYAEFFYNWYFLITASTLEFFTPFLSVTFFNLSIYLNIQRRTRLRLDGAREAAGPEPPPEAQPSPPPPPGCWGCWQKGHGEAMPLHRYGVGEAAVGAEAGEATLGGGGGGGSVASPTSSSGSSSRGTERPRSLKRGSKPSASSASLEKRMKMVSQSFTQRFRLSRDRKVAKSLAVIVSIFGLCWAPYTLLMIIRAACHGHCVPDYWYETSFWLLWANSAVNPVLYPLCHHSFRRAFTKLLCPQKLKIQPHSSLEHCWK

In the case of `Cc1cc(NC(=O)c2cccc(S(F)(F)(F)(F)F)c2)cc(-n2ccn3nc(-c4cccnc4)cc23)c1` [BAY-309], the Kd [1] is reported as 0.063 µM (not active).
In the case of `Cc1cc(C)c(-n2ccn3nc(-c4cccnc4)cc23)cc1NC(=O)c1cc(C#N)cc(S(F)(F)(F)(F)F)c1` [BAY-826], the inhibition [2] is reported as -5.88%.
